Test system: EMT6 mouse tumor cells
Experiment: EMT6 s.c. tumor model (monotherapy and combination with cyclophosphamide)
Format: in vivo, mice
Conditions: i.p. 3 times each week, mAb 40 mg/kg, CTX 80 mg/kg
Source text: Athymic nude mice (Charles River Laboratories, Wilmington, Mass.), Balb/c mice, or C57B6 mice (Charles River Laboratories, Wilmington, Mass.) may be used for inoculation with mouse or human carcinoma cells. For treatment of established tumors in subcutaneous models, tumors may be allowed to grow to approximately 200 mm^3 in size, and then mice may be randomized into groups of 12-15 animals per group. In lung metastasis models, mice may be injected intravenously with tumor cells via tail vein. Animals may receive i.p. administered anti-TGFβRII mAb at a dose of 10-40 mg/kg three times each week. Mice in control groups may receive an equal volume of saline or normal IgG solution. […] Tumors may be measured twice each week with calipers. Tumor volumes may be calculated using the formula [π/6 (w1×w2×2)], where “w1” represents the largest tumor diameter and “w2” represents the smallest tumor diameter. […]
The inhibitory activity of mAb MT1 against immunosuppressive cells, i.e. CD4/CD25/Foxp3/TGFβRII+Treg cells and Gr-1+/CD11b+/TGFβRII+ myeloid cells is evaluated in an EMT6 s.c. tumor model. The inhibitory effect of anti-TGFβRII antibody on Treg and Gr-1+/CD11b+ myeloid cell population in tumor-bearing mice may be determined by FACS analysis on the alteration of Gr-1+/CD11b+ population and CD4/CD25/Foxp3/TGFβRII+ and Gr-1+/CD11b+/TGFβRII+ population after treatment of mice with mAb MT1. […]

## O=P1(N(CCCl)CCCl)NCCCO1 (centres unmarked) [CTX, Cyclophosphamide]
  inhibition of primary tumor growth: 62%
  inhibition of spontaneous pulmonary metastasis: 96%

From patent US20100119516A1, “ANTI-TGF-BETA RECEPTOR II ANTIBODIES” (priority 2008, published 2010)
